# Test results as given in ChEMBL document CHEMBL1126154, “Pyrrole mannich bases as potential antipsychotic agents” (J Med Chem, 1992).
# Assays:
# [1] = biological target: Serotonin 1 (5-HT1) receptor (Rattus norvegicus, UniProt P28564+P30940+P19327+P28565); assay: The compound was tested for its binding affinity towards 5-hydroxytryptamine 1 receptor by displacing [3H]5-HT radioligand in rat cerebral cortex; assay type: tissue-based
# [2] = biological target: T1, Adrenergic receptor alpha-1 (Rattus norvegicus, UniProt P15823+P23944+P43140); assay: The compound was tested for its binding affinity towards Alpha-1 adrenergic receptor by displacing [3H]WB-4101 radioligand in rat cerebral cortex; assay type: tissue-based
# T1 sequence (P15823 whole entry): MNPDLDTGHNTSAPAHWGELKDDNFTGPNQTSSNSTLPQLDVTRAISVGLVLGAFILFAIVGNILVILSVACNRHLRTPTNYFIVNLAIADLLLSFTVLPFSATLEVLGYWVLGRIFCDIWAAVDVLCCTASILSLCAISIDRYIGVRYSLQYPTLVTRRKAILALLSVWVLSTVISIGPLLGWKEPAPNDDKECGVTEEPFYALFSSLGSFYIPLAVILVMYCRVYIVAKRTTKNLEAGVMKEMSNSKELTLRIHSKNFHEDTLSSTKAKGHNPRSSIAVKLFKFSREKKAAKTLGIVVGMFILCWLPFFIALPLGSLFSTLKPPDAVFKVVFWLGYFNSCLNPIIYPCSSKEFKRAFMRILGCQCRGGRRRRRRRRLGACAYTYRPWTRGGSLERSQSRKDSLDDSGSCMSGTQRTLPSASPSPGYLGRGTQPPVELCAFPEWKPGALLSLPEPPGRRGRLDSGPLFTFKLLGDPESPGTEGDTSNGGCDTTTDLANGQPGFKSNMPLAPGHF
# T1 sequence (P23944 whole entry): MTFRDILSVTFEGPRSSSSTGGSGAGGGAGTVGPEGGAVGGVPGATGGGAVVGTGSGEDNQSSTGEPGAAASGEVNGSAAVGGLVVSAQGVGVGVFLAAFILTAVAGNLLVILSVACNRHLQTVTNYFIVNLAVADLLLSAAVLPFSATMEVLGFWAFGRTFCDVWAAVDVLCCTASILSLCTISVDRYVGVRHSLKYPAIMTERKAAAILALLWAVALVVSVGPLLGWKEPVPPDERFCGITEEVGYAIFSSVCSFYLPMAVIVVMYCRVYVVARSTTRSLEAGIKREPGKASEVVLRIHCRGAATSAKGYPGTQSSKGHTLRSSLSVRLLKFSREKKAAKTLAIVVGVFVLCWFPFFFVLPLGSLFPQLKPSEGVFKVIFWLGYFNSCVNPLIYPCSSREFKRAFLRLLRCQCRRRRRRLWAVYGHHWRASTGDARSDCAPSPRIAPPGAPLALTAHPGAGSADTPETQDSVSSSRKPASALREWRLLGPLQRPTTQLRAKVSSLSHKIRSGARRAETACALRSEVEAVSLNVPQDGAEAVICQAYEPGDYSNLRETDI
# T1 sequence (P43140 whole entry): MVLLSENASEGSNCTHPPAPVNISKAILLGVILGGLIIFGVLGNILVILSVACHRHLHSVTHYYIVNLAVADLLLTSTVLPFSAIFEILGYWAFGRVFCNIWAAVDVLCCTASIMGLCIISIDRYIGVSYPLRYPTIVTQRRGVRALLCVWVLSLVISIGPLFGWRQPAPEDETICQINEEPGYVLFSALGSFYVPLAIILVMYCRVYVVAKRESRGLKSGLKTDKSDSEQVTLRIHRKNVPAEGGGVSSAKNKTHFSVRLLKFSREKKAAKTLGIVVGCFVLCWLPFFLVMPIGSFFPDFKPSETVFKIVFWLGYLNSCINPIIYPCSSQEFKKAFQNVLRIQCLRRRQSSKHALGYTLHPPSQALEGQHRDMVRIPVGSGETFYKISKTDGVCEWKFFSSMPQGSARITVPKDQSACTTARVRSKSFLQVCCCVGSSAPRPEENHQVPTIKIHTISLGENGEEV
# [3] = test system: Rattus norvegicus; assay: Antipsychotic activity at a dose 10 times the ED50 value for CAR block for production of catalepsy in the rat (following i.p. dosing); assay type: functional; details: ip
# [4] = biological target: Serotonin 2 (5-HT2) receptor (Rattus norvegicus, UniProt P30994+P08909+P14842); assay: The compound was tested for its binding affinity towards 5-hydroxytryptamine 2 receptor by displacing [3H]ketanserin radioligand in rat cerebral cortex; assay type: tissue-based
# [5] = test system: Rattus norvegicus; assay: The percentage production of catalepsy in rat at a dose of 25 mg/kg ip.; assay type: functional
# [6] = test system: Rattus norvegicus; assay: The compound was measured at a dose 10 times the ED50 value for CAR block for production of catalepsy in the rat via oral administration.; assay type: functional; details: Rattus norvegicus, po; read-out: ED50
# [7] = biological target: T2, 5-hydroxytryptamine receptor 1A (Rattus norvegicus, UniProt P19327); assay: Binding affinity towards 5-hydroxytryptamine 1A receptor by displacing [3H]WB-4101 from rat hippocampus; assay type: tissue-based
# T2 sequence (P19327 whole entry): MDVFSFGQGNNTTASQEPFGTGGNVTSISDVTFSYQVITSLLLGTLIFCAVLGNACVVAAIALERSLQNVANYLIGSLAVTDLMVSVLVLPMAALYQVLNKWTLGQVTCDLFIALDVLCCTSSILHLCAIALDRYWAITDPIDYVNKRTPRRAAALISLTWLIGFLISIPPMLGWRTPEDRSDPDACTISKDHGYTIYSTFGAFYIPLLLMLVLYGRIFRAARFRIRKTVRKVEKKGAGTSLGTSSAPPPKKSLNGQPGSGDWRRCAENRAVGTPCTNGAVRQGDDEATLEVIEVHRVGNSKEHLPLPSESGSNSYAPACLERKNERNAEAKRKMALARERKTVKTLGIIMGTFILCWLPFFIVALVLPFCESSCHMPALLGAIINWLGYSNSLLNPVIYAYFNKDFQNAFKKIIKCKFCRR
# [8] = biological target: 5-hydroxytryptamine receptor 1B (Rattus norvegicus, UniProt P28564); assay: The compound was tested for its binding affinity towards 5-hydroxytryptamine 1B receptor by displacing [3H]serotonin radioligand in rat cerebral cortex; assay type: tissue-based
# [9] = test system: Rattus norvegicus; assay: The percentage production of catalepsy in rat at a dose of 40 mg/kg ip.; assay type: functional
# [10] = organism: Rattus norvegicus; assay: ED50 value for catalepsy indicates the dose required to produce a 50% of maximum catalepsy score. parentheses value indicate 95% confidence limit.; assay type: functional
# [11] = organism: Rattus norvegicus; assay: ED50 value for catalepsy indicates the dose required to produce a 50% of maximum catalepsy score; assay type: functional
# Sequence of 5-hydroxytryptamine receptor 1B (P28564 whole entry): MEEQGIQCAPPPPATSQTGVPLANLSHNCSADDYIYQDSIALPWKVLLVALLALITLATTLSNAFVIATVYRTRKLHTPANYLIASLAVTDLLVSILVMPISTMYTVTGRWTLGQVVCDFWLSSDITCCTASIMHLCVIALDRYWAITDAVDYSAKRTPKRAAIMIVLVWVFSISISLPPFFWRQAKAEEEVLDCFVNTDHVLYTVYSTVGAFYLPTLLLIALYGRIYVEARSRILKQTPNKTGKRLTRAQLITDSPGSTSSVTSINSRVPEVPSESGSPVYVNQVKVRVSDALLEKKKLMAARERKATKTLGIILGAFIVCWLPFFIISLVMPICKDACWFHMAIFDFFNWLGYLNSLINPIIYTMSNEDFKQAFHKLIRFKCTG
SMILES,Ki [1] [µM],Ki [2] [µM],Ki [4] [µM],ED50 [3] [mg/kg],also measured
CCCCc1ccccc1N1CCN(Cc2ccc(CN3CCCC3=O)n2C)CC1,–,–,–,> 15,–
COc1ccccc1N1CCN(Cc2ccc(CN3CCCC3=O)[nH]2)CC1,0.148,0.0431,1,> 15,–
COc1ccccc1N1CCN(Cc2ccc(CN3CCCCCC3=O)n2C)CC1,0.12,0.0437,0.669,2.1,% catalepsy at 25 mg/kg [5]: 51%; ED50 [6]: 30.5 mg/kg
O=C1CCCN1Cc1ccc(CN2CCN(c3ccccc3)CC2)[nH]1,–,–,–,> 15,–
Cn1c(CN2CCN(c3ccccc3Cl)CC2)ccc1CN1CCCC1=O,–,0.0531,–,> 15,–
COc1cccc(N2CCN(Cc3ccc(CN4CCCC4=O)n3C)CC2)c1,> 1,1,–,> 7.5,–
CCc1ccccc1N1CCN(Cc2ccc(CN3CCCCC3=O)n2C)CC1,0.0273,0.0113,0.355,> 15,Ki [7]: 0.03 µM; Ki [8]: 0.1 µM
CC(C)c1ccccc1N1CCN(Cc2ccc(CN3CCCCCCC3=O)n2C)CC1,0.0502,0.0359,0.196,> 15,–
CCCCOc1ccccc1N1CCN(Cc2ccc(CN3CCCCCC3=O)n2C)CC1,0.0589,0.0157,0.237,> 15,–
Cn1c(CN2CCN(c3cccc([N+](=O)[O-])c3)CC2)ccc1CN1CCCCC1=O,–,–,0.669,> 15,–
CC(C)Oc1ccccc1N1CCN(Cc2ccc(CN3CCCCC3=O)[nH]2)CC1,0.0331,0.0052,0.0553,4,Ki [7]: 0.0054 µM; % catalepsy at 40 mg/kg [9]: 10%
O=C1CC2(CCCC2)CC(=O)N1CCCCN1CCN(c2ncccn2)CC1 [BUSPIRONE],–,–,–,4.5,–
O=C(CCCN1CCC(O)(c2ccc(Cl)cc2)CC1)c1ccc(F)cc1 [HALOPERIDOL],–,–,–,–,ED50 [10]: 0.36 mg/kg

# Second part, led by results:
Ki [1] [µM],Ki [2] [µM],Ki [4] [µM],SMILES,ED50 [3] [mg/kg],also measured
1,0.136,–,Cc1ccccc1N1CCN(Cc2ccc(CN3CCCC3=O)n2C)CC1,> 15,–
0.14,0.0637,–,Cn1c(CN2CCN(c3ccccc3C#N)CC2)ccc1CN1CCCC1=O,> 15,–
–,0.1,–,COc1ccccc1N1CCN(Cc2ccc(CN3CCCC3=O)n2-c2ccccc2)CC1,> 15,–
–,0.14,–,Cn1c(CN2CCN(c3ccccc3O)CC2)ccc1CN1CCCC1=O,> 15,–
0.139,0.166,–,COc1ccccc1N1CCN(Cc2ccc(CN3CCCCC3=O)n2C)CC1,2.3,% catalepsy at 25 mg/kg [5]: 39.8%; ED50 [6]: 9.7 mg/kg
> 1,> 0.1,> 0.1,Cn1c(CN2CCN(c3cccc([N+](=O)[O-])c3)CC2)ccc1CN1CCCC1=O,15,–
0.304,0.0382,0.227,CCc1ccccc1N1CCN(Cc2ccc(CN3CCCC3=O)n2C)CC1,15,–
0.185,0.0449,> 1,COc1ccccc1N1CCN(Cc2ccc(CN3CCCC3=O)n2C)CC1,2.1,Ki [7]: 0.0172 µM; % catalepsy at 25 mg/kg [5]: 31%; ED50 [6]: > 20 mg/kg
–,0.436,–,Cn1c(CN2CCN(c3ccccc3)CC2)ccc1CN1CCCC1=O,> 15,–
1,> 0.1,> 0.1,Cn1c(CN2CCN(c3cccc(F)c3)CC2)ccc1CN1CCCC1=O,> 15,–
0.041,0.0231,1,COc1ccccc1N1CCN(Cc2ccc(CN3CCCCCCC3=O)n2C)CC1,8.2,% catalepsy at 25 mg/kg [5]: 16.3%; ED50 [6]: > 27 mg/kg
0.283,0.0266,0.317,CCCc1ccccc1N1CCN(Cc2ccc(CN3CCCC3=O)n2C)CC1,> 30,–
0.076,0.02,0.409,CC(C)c1ccccc1N1CCN(Cc2ccc(CN3CCCC3=O)n2C)CC1,5.8,–
0.196,0.264,0.256,Cn1c(CN2CCN(c3cccc(Cl)c3)CC2)ccc1CN1CCCC1=O,12.3,–
–,> 1,–,CCN1CCC[C@H]1CNC(=O)c1cc(S(N)(=O)=O)ccc1OC [LEVOSULPIRIDE],> 40,ED50 [11]: > 40 mg/kg
> 1,0.0293,–,CN1CCN(CCCN2c3ccccc3Sc3ccc(C(F)(F)F)cc32)CC1 [TRIFLUOPERAZINE],0.5,Ki [7]: 0.411 µM; ED50 [11]: 1.7 mg/kg
